Consider 3 compounds from article PMC4906375, “Contribution of Amphipathicity and Hydrophobicity to the Antimicrobial Activity and Cytotoxicity of β-Hairpin Peptides” (ACS Infectious Diseases, 2016).

Converted amounts (≈) assume the structure as drawn.

The subject of experiment [1] is C. neoformans ATCC 208821. As to the kind of experiment: microbe, parasite or virus in culture. It counts as cell-based, Cryptococcus neoformans. To be noted: Cryptococcus neoformans, ATCC208821; C. neoformans ATCC 208821; n = 4; read-out: MIC. The method, then:
(§1) Both antibacterial and antifungal MIC assays were performed by a broth microdilution plate based method as per CLSI guidelines for antimicrobial susceptibility testing.[53],[54] […] Full assay details are included in the Supporting Information with a full list of strains tested in Table S1.
(§2) Antibacterial assay (Minimum Inhibitory Concentration [MIC]).
(§3) MIC assay was performed by a broth microdilution plate based method as per CLSI guidelines for antimicrobial susceptibility testing of aerobic bacteria.1 Compounds were prepared at 1.28 mg/mL solution in water. The tested strains, Table S1, were cultured in Luria broth (LB) (In Vitro Technologies, USB75852), at 37 °C overnight. A sample of culture was then diluted 40Pfold in fresh Muller Hinton broth (MHB) (Bacto laboratories, 211443) and incubated at 37 °C for 1.5P2 h. The compounds were serially diluted twoPfold across the wells, with compound concentrations ranging from 0.015 µg/mL to 512 µg/mL, plated in duplicate. The resultant midPlog phase cultures were diluted to the final concentration of 1×10^6 CFU/mL, then 50 µL was added to each well of the compoundP containing 96Pwell plates (Corning 3641, NonPbinding Surface [NBS]), giving a final compound concentration range of 0.008 µg/mL to 256 µg/mL and 5x10^5 CFU/mL. All the plates were covered and incubated at 37 °C for 18 h. MICs were determined visually, being defined as the lowest concentration showing no visible growth. Resazurin was added at 0.001% final concentration to each well and incubated for 2 h before MICs were rePread for confirmation using the colour change from blue to pink to indicate wells containing viable cells. The resazurin assay was added in some wells where some form of precipitate was present in otherwise clear wells, making it difficult to ascertain which wells had visible […]
(§4) Antifungal assay (Minimum Inhibitory Concentration [MIC]). MIC assay was performed by a broth microdilution plate based method as per CLSI guidelines for antimicrobial susceptibility testing.2 Fungi strains, Table S1, were cultured for 3 days on Yeast ExtractPPeptone Dextrose (YPD) (SigmaPAldrich, Y1500) agar at 30 °C. A yeast suspension of 1x10^6 to 5x10^6 CFU/mL was prepared from five colonies. These stock suspensions were diluted with Yeast Nitrogen Base (YNB) (Becton Dickinson, 233520) broth to a final concentration of 2.5 ×10^3 CFU/mL. All samples, compounds and standards were plated in 96Pwell plates (Corning 3641, NonPbinding Surface [NBS]), by adding 10 µL of 1.28 mg/mL stock solution to each well and 90 µL of media. Then, the samples were serial diluted (1:2) in 12 concentrations across the plate. The standard antifungal ranged from 256 […]
(§5) µg/mL to 0.12 µg/mL and compounds from 128 µg/mL to 0.06 µg/mL with final volumes of 50 µL per well, plated in duplicate. Then, 50 µL of the fungi suspension that was previously prepared in YNB broth to the final concentration of 2.5×10^3 CFU/mL, was added to each well of the compoundPcontaining plates, giving a final standard compound concentration range of 128 µg/mL to 0.06 µg/mL and tested compound from 64 µg/mL to 0.03 µg/mL. Plates were covered and incubated at 35 °C for 24 h. Candida albicans MICs were determined by measuring the absorbance at OD530. For Cryptococcus neoformans 10 µL of 0.06 % resazurin were added to the 24 h incubated plates. Then, these plates were incubated for another 3 h.
(§6) Cryptococcus neoformans MICs were determined by measuring the absorbance at OD570P600. […]

Experiment [2] concerns C. albicans ATCC 90028. The experiment can be described thus: microbe, parasite or virus in culture. Format: cell-based, Candida albicans. To be noted: Candida albicans, ATCC90028; C. albicans ATCC 90028; n = 4; read-out: MIC. The method, then: as §1, §2, §3, §4, §5, §6
Experiment [3] deals with B. subtilis ATCC 6051. The experiment can be described thus: microbe, parasite or virus in culture. It counts as cell-based, Bacillus subtilis. To be noted: Bacillus subtilis, ATCC6051. The protocol: as §1, §2, §3
(§7) Antifungal assay (Minimum Inhibitory Concentration [MIC]). MIC assay was performed by a broth microdilution plate based method as per CLSI guidelines for antimicrobial susceptibility testing.2 Fungi strains, Table S1, were cultured for 3 days on Yeast ExtractPPeptone Dextrose (YPD) (SigmaPAldrich, Y1500) agar at 30 °C. A yeast suspension of 1x10^6 to 5x10^6 CFU/mL was prepared from five colonies. These stock suspensions were diluted with Yeast Nitrogen Base (YNB) (Becton Dickinson, 233520) broth to a final concentration of 2.5 ×10^3 CFU/mL. All samples, compounds and standards were plated in 96Pwell plates (Corning 3641, NonPbinding Surface [NBS]), by adding 10 µL of 1.28 mg/mL stock solution to each well and 90 µL of media. Then, the samples were serial diluted (1:2) in 12 concentrations across the plate. The standard antifungal ranged from 256

Experiment [4] relates to S. aureus ATCC 43300 (MRSA). The experiment can be described thus: microbe, parasite or virus in culture. To be noted: Staphylococcus aureus. It counts as cell-based, Staphylococcus aureus. The method, then:
as §1, §2, §3, §7

For experiment [5], the system named is K. pneumoniae BAA 2146 (NDM-1 pos). It counts as cell-based, Klebsiella pneumoniae. To be noted: n = 4. The protocol: as §1, §2, §3, §7
For experiment [6], the system named is K. pneumoniae ATCC 700603 (MDR). Format: cell-based, Klebsiella pneumoniae. To be noted: n = 4. The protocol: as §1, §2, §3, §7
Experiment [7] has as its system K. pneumoniae ATCC 13883. It counts as cell-based, Klebsiella pneumoniae. The note with it: K. pneumoniae ATCC 13883; n = 4. The method, then: as §1, §2, §3, §7
For experiment [8], the system named is A. baumannii ATCC 19606. Format: cell-based, Acinetobacter baumannii. The note with it: A. baumannii ATCC 19606; n = 4. The protocol: as §1, §2, §3, §7
The subject of experiment [9] is P. aeruginosa ATCC 27853. It counts as cell-based, Pseudomonas aeruginosa. To be noted: P. aeruginosa ATCC 27853; n = 4. The method, then:
as §1, §2, §3, §7

Experiment [10] relates to E. coli ATCC 700926 (K12). Format: cell-based, Escherichia coli. The note with it: E. coli ATCC 700926 (K12); n = 4. The protocol: as §1, §2, §3, §7
In experiment [11] the test system is E. coli MB 4902 (ΔlpxC). Format: cell-based, Escherichia coli. To be noted: n = 4. The protocol: as §1, §2, §3, §7
Experiment [12] relates to E. coli ATCC 25922 (control strain). Format: cell-based, Escherichia coli. The note with it: E. coli ATCC 25922 (control strain); n = 4. The protocol:
as §1, §2, §3, §7

Consider `C[C@@H]1[C@H](O)[C@@H](C)/C=C/C=C/C=C/C=C/C=C/C=C/C=C/[C@H](O[C@@H]2O[C@H](C)[C@@H](O)[C@H](N)[C@@H]2O)C[C@@H]2O[C@](O)(C[C@@H](O)C[C@@H](O)[C@H](O)CC[C@@H](O)C[C@@H](O)CC(=O)O[C@H]1C)C[C@H](O)[C@H]2C(=O)O` [amphotericin B, reference compound], for which the MIC is 0.015 µg/mL (≈ 0.0162 µM) in experiment [1] and 0.06 µg/mL (≈ 0.0649 µM) in experiment [2].
As to `CN[C@H](CC(C)C)C(=O)N[C@H]1C(=O)N[C@@H](CC(N)=O)C(=O)N[C@H]2C(=O)N[C@H]3C(=O)N[C@H](C(=O)N[C@H](C(=O)O)c4cc(O)cc(O)c4-c4cc3ccc4O)[C@H](O)c3ccc(c(Cl)c3)Oc3cc2cc(c3O[C@@H]2O[C@H](CO)[C@@H](O)[C@H](O)[C@H]2O[C@H]2C[C@](C)(N)[C@H](O)[C@H](C)O2)Oc2ccc(cc2Cl)[C@H]1O` [vancomycin, reference compound], the MIC in experiment [3] amounted to 0.25 µg/mL (≈ 0.173 µM); in experiment [4], 1 µg/mL (≈ 0.69 µM).
On to colistin [reference compound], for which the MIC in experiment [5] turned out to be 0.03 µg/mL; in [6], 0.125 µg/mL; in experiment [7], 0.5 µg/mL; in [8], 0.03 µg/mL; in experiment [9], 0.25 µg/mL; in experiment [10], 0.03 µg/mL. For the same compound, the MIC in experiment [11] worked out at 9 ng/mL; in experiment [12] it was 0.03 µg/mL.
